According to patent US8735411B2, “Macrocyclic benzofused pyrimidine derivatives” (AbbVie Inc., priority 2006, dated 2014):

Target: histamine H4 receptor (Homo sapiens, UniProt Q9H3N8)
Assay: In vitro histamine H4 potency in FLIPR (Ca2+ flux, HEK-293 cells coexpressing Gαqi5)
Type: cell-based
Parameters: expressed in transfected cells
Conditions: Kb for antagonists and inverse agonists, EC50 for partial agonists
From the text: There are many methods available to show the effectiveness of compounds as histamine H4 receptor ligands. Histamine H4 receptors from mammalian species have been cloned. Methods to clone, express, and assess the potency and functional activity of such cloned genes are well known to those skilled in the art of molecular biology. […] Before testing, cells are loaded with a Ca^+2 sensitive fluorescent dye, in this case Fluo-4. In the case of partial agonist or agonist ligands, addition of compound to the cells leads to the increase in intracellular Ca^+2 which is detected by FLIPR (Fluorescence Imaging Plate Reader; Molecular Devices, Sunnyvale, Calif.) technology. […] The fluorescence intensities measured before addition of the test compound are subtracted from the fluorescence intensities at later time points. Peak response values determined at each concentration of ligand are expressed as a percentage of the response obtained with the full agonist histamine. Concentration versus response data are analyzed to obtain compound potency as Kb values for antagonists and inverse agonists and as EC50 values for partial agonists.

Potency	Compound
17 nM	4-(4-Dimethylamino-piperidin-1-yl)-6,7-dihydro-5H-benzo[6,7]cyclohepta[1,2-d]pyrimidin-2-ylamine [Example 114]
18 nM	CN[C@@H]1CCN(c2nc(N)nc3c2CC(C)c2ccccc2-3)C1 (stereo partly drawn) [Example 1, 6-Methyl-4-[(3R)-3-methylamino-pyrrolidin-1-yl]-5,6-dihydro-benzo[h]quinazolin-2-ylamine]
44 nM	CNC1CN(c2nc(N)nc3c2CC(C)c2ccccc2-3)C1 (centres unmarked) [Example 2, 6-Methyl-4-(3-methylamino-azetidin-1-yl)-5,6-dihydro-benzo[h]quinazolin-2-ylamine]
398 nM	CC1Cc2c(nc(N)nc2N2CCNCC2)-c2ccccc21 (centres unmarked) [Example 4, 6-Methyl-4-piperazin-1-yl-5,6-dihydro-benzo[h]quinazolin-2-ylamine]
9.8 nM	CN1CCN(c2nc(N)nc3c2CCCc2ccccc2-3)CC1 [Example 5, 4-(4-Methyl-piperazin-1-yl)-6,7-dihydro-5H-benzo[6,7]cyclohepta[1,2-d]-pyrimidin-2-ylamine]
33 nM	CNC1CN(c2nc(N)nc3c2COc2ccccc2-3)C1 [Example 8, 1-(3-Methylamino-azetidin-1-yl)-10H-9-oxa-2,4-diaza-phenanthren-3-ylamine]
32 nM	CN[C@@H]1CCN(c2nc(N)nc3c2COc2ccccc2-3)C1 [Example 9, 1-(3-(R)-Methylamino-pyrrolidin-1-yl)-10H-9-oxa-2,4-diaza-phenanthren-3-ylamine]
10 nM	Nc1nc2c(c(N3CCNCC3)n1)COc1ccccc1-2 [Example 10, 1-Piperazin-1-yl-10H-9-oxa-2,4-diaza-phenanthren-3-ylamine]
7.8 nM	CN[C@@H]1CCN(c2nc(N)nc3c2CCCc2ccc(F)cc2-3)C1 [Example 11, 10-Fluoro-4-(3-(R)-methylamino-pyrrolidin-1-yl)-6,7-dihydro-5H-benzo[6,7]cyclohepta[1,2-d]pyrimidin-2-ylamine]
7.4 nM	CNC1CN(c2nc(N)nc3c2CCCc2ccc(F)cc2-3)C1 [Example 12, 10-Fluoro-4-(3-methylamino-azetidin-1-yl)-6,7-dihydro-5H-benzo[6,7]cyclohepta[1,2-d]pyrimidin-2-ylamine]
7.2 nM	Nc1nc2c(c(N3CCNCC3)n1)CCCc1ccc(F)cc1-2 [Example 13, 10-Fluoro-4-piperazin-1-yl-6,7-dihydro-5H-benzo[6,7]cyclohepta[1,2-d]pyrimidin-2-ylamine]
331 nM	CN[C@H]1CCN(c2nc(N)nc3c2CCCc2ccccc2-3)C1 [Example 14, 4-[(3S)-3-Methylamino-pyrrolidin-1-yl]-6,7-dihydro-5H-benzo[6,7]cyclohepta[1,2-d]pyrimidin-2-ylamine]
209 nM	CN1CC[C@@H]2CN(c3nc(N)nc4c3CCCc3ccccc3-4)C[C@@H]21 [Example 15, 4-((3aR,6aR)-1-Methyl-hexahydro-pyrrolo[3,4-b]pyrrol-5-yl)-6,7-dihydro-5H-benzo[6,7]cyclohepta[1,2-d]pyrimidin-2-ylamine]
25704 nM	Nc1nc2c(c(N3CCC(N4CCCCC4)C3)n1)CCCc1ccccc1-2 (centres unmarked) [Example 18, 4-(3-Piperidin-1-yl-pyrrolidin-1-yl)-6,7-dihydro-5H-benzo[6,7]cyclohepta[1,2-d]pyrimidin-2-ylamine]
32 nM	Nc1nc2c(c(N3CCNCC3)n1)CCCCc1ccccc1-2 [Example 20, 4-Piperazin-1-yl-5,6,7,8-tetrahydro-1,3-diaza-dibenzo[a,c]cycloocten-2-ylamine]
5623 nM	Nc1nc2c(c(N3CCNCC3)n1)CCCCCc1ccccc1-2 [Example 21, 4-Piperazin-1-yl-6,7,8,9-tetrahydro-5H-1,3-diaza-dibenzo[a,c]cyclononen-2-ylamine]
56 nM	CN[C@@H]1CCN(c2nc(N)nc3c2CCCCCc2ccccc2-3)C1 [Example 23, 4-(3-(R)-Methylamino-pyrrolidin-1-yl)-6,7,8,9-tetrahydro-5H-1,3-diaza-dibenzo[a,c]cyclononen-2-ylamine]
148 nM	Nc1nc2c(c(N3CC[C@@H](N)C3)n1)CCCCCc1ccccc1-2 [Example 24, 4-((R)-3-Amino-pyrrolidin-1-yl)-6,7,8,9-tetrahydro-5H-1,3-diaza-dibenzo[a,c]cyclononen-2-ylamine]

Potency	Compound
646 nM	Nc1nc2c(c(N3CC[C@H](N)C3)n1)CCCCCc1ccccc1-2 [Example 25, 4-((S)-3-Amino-pyrrolidin-1-yl)-6,7,8,9-tetrahydro-5H-1,3-diaza-dibenzo[a,c]cyclononen-2-ylamine]
115 nM	CNC1CN(c2nc(N)nc3c2CCCCCc2ccccc2-3)C1 [Example 26, 4-(3-Methylamino-azetidin-1-yl)-6,7,8,9-tetrahydro-5H-1,3-diaza-dibenzo[a,c]cyclononen-2-ylamine]
16596 nM	Nc1nc2c(c(N3CC[C@H]4CNC[C@H]43)n1)CCCCCc1ccccc1-2 [Example 27, 4-((3aS,6aS)-Hexahydro-pyrrolo[3,4-b]pyrrol-1-yl)-6,7,8,9-tetrahydro-5H-1,3-diaza-dibenzo[a,c]cyclononen-2-ylamine]
15849 nM	Nc1nc2c(c(N3C[C@@H]4C[C@H]3CN4)n1)CCCCCc1ccccc1-2 [Example 28, 4-((1S,4S)-2,5-Diaza-bicyclo[2.2.1]hept-2-yl)-6,7,8,9-tetrahydro-5H-1,3-diaza-dibenzo[a,c]cyclononen-2-ylamine]
39 nM	CN1CCN(c2nc(N)nc3c2CCOc2ccccc2-3)CC1 [Example 29, 4-(4-Methyl-piperazin-1-yl)-5,6-dihydro-7-oxa-1,3-diaza-dibenzo[a,c]cyclohepten-2-ylamine]
166 nM	Nc1nc2c(c(N3CCNCC3)n1)CCOc1ccccc1-2 [Example 30, 4-Piperazin-1-yl-5,6-dihydro-7-oxa-1,3-diaza-dibenzo[a,c]cyclohepten-2-ylamine]
27 nM	CN[C@@H]1CCN(c2nc(N)nc3c2CCOc2ccccc2-3)C1 [Example 31, 4-((R)-3-Methylamino-pyrrolidin-1-yl)-5,6-dihydro-7-oxa-1,3-diaza-dibenzo[a,c]cyclohepten-2-ylamine]
8.7 nM	CNC1CN(c2nc(N)nc3c2CCOc2ccccc2-3)C1 [Example 32, 4-(3-Methylamino-azetidin-1-yl)-5,6-dihydro-7-oxa-1,3-diaza-dibenzo[a,c]cyclohepten-2-ylamine]
13 nM	CNC1CN(c2nc(N)nc3c2CCSc2ccccc2-3)C1 [Example 33, 4-(3-Methylamino-azetidin-1-yl)-5,6-dihydro-7-thia-1,3-diaza-dibenzo[a,c]cyclohepten-2-ylamine]
4.2 nM	CN[C@@H]1CCN(c2nc(N)nc3c2CCSc2ccccc2-3)C1 [Example 34, 4-(3-(R)-Methylamino-pyrrolidin-1-yl)-5,6-dihydro-7-thia-1,3-diaza-dibenzo[a,c]cyclohepten-2-ylamine]
891 nM	Nc1nc2c(c(N3CC[C@@H](N)C3)n1)CCSc1ccccc1-2 [Example 35, 4-(3-(R)-Amino-pyrrolidin-1-yl)-5,6-dihydro-7-thia-1,3-diaza-dibenzo[a,c]cyclohepten-2-ylamine]
39 nM	Nc1nc2c(c(N3CCNCC3)n1)CCSc1ccccc1-2 [Example 36, 4-Piperazin-1-yl-5,6-dihydro-7-thia-1,3-diaza-dibenzo[a,c]cyclohepten-2-ylamine]
537 nM	CNC1CN(c2nc(N)nc3c2CC[S+]([O-])c2ccccc2-3)C1 (centres unmarked) [Example 37, 4-(3-Methylamino-azetidin-1-yl)-7-oxo-6,7-dihydro-5H-7λ4-thia-1,3-diaza-dibenzo[a,c]cyclohepten-2-ylamine]
5754 nM	CNC1CN(c2nc(N)nc3c2CCS(=O)(=O)c2ccccc2-3)C1 [Example 38, 4-(3-Methylamino-azetidin-1-yl)-7,7-dioxo-6,7-dihydro-5H-7λ6-thia-1,3-diaza-dibenzo[a,c]cyclohepten-2-ylamine]
22 nM	CN[C@@H]1CCN(c2nc(N)nc3c2CCc2ccccc2-3)C1 [Example 39, 4-(3-(R)-Methylamino-pyrrolidin-1-yl)-5,6-dihydro-benzo[h]quinazolin-2-ylamine]
34 nM	CNC1CN(c2nc(N)nc3c2CCc2ccccc2-3)C1 [Example 40, 4-(3-Methylamino-azetidin-1-yl)-5,6-dihydro-benzo[h]quinazolin-2-ylamine]
50 nM	CN1CCN(c2nc(N)nc3c2OCc2ccccc2-3)CC1 [Example 41, 1-(4-Methyl-piperazin-1-yl)-9H-10-oxa-2,4-diaza-phenanthren-3-ylamine]

Compound	Potency
Nc1nc2c(c(N3C[C@@H]4C[C@H]3CN4)n1)CCCc1ccccc1-2 [Example 17, 4-((1S,4S)-2,5-Diaza-bicyclo[2.2.1]hept-2-yl)-6,7-dihydro-5H-benzo[6,7]cyclohepta[1,2-d]pyrimidin-2-ylamine]	912 nM
Nc1nc2c(c(N3CC[C@@H]4CNC[C@@H]43)n1)CCCc1ccccc1-2 [Example 19, 4-((3aR,6aR)-Hexahydro-pyrrolo[3,4-b]pyrrol-1-yl)-6,7-dihydro-5H-benzo[6,7]cyclohepta[1,2-d]pyrimidin-2-ylamine]	603 nM
Nc1nc2c(c(N3CC4CNCC4C3)n1)CCCc1ccccc1-2 (centres unmarked) [Example 22, 4-(Hexahydro-pyrrolo[3,4-c]pyrrol-2-yl)-6,7-dihydro-5H-benzo[6,7]cyclohepta[1,2-d]pyrimidin-2-ylamine]	66 nM
